Like-named read-outs stand apart in the source and are kept apart here.
Target: IKZF2 (Homo sapiens (Human), UniProt Q96SW2+Q9UKS7)
Experiment: IKZF2 HiBiT Assay (Jurkat-IKZF2-HiBiT cell line)
Assay type: cell-based
Conditions: for DC50: read-out: HiBit assay degradation analysis DC50; for Dmax: read-out: HiBit assay degradation analysis Dmax
Procedure, shortened: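 IKZF2 degradation was assessed as HiBiT luminescence in Jurkat-IKZF2-HiBiT cells, using lytic detection after 24 h of compound treatment at 37 °C, 5% CO2.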

[1] = Jurkat-IKZF2-HiBiT cells, 24 hours

IKZF2, sequence (Q9UKS7 whole entry): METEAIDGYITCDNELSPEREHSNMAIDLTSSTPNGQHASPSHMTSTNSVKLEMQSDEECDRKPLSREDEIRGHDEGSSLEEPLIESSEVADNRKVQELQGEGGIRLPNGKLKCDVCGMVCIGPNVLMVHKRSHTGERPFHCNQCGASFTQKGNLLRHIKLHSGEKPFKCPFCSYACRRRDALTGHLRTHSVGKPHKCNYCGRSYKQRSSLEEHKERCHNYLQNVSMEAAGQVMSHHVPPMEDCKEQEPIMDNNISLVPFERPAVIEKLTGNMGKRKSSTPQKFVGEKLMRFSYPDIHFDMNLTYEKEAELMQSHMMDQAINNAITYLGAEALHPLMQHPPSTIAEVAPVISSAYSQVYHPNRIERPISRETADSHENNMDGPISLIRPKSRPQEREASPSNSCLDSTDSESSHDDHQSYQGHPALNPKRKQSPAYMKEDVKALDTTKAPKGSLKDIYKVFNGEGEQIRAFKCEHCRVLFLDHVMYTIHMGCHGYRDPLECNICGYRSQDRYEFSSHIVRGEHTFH
IKZF2, sequence (Q96SW2 whole entry): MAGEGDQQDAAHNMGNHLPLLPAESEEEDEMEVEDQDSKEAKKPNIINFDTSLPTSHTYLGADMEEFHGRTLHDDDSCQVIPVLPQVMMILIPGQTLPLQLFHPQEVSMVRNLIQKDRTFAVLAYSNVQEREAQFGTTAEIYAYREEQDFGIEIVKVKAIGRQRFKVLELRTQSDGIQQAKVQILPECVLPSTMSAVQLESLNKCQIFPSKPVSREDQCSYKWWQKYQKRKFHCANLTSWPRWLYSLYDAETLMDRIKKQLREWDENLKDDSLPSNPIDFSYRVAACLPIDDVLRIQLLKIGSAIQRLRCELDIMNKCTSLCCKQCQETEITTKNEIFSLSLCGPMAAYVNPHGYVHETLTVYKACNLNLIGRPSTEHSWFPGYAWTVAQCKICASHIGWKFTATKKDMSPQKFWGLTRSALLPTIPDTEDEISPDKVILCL
IKZF2, sequence (Q16531 whole entry partner): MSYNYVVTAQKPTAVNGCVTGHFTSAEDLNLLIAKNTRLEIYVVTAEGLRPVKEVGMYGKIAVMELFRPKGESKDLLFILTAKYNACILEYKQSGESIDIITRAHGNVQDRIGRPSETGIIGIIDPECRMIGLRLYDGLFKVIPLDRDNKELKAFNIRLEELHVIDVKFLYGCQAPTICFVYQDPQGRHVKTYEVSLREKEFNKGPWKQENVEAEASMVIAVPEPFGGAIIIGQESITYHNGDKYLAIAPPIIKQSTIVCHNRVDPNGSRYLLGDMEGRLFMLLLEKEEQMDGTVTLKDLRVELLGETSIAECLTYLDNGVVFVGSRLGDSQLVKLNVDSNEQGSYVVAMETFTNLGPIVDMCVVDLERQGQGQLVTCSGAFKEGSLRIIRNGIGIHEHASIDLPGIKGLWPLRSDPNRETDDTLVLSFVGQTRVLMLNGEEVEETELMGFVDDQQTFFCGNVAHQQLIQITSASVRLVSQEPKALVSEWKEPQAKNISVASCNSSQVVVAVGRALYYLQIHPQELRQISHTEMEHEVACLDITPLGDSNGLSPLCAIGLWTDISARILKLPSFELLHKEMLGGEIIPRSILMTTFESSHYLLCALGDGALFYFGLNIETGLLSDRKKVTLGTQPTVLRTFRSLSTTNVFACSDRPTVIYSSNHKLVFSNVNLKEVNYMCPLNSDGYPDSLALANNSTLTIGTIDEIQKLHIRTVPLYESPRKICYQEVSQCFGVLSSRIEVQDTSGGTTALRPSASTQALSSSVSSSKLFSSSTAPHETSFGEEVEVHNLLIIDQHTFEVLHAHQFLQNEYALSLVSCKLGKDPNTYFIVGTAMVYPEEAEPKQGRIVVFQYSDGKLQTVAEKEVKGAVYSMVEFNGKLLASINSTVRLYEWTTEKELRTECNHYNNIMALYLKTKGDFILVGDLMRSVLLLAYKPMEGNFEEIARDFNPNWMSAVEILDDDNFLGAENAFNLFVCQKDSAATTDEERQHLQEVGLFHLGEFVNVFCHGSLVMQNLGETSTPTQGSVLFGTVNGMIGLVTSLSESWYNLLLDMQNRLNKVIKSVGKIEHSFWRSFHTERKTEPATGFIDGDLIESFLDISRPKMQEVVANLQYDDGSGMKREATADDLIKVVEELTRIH

SMILES | DC50 [1] | Dmax [1] | Dmax
O=C1CC[C@H](N2Cc3c(ccc4c3OCC43CCN(Cc4cccc(-c5cnn(C[C@@H]6CCO6)c5)c4)CC3)C2=O)C(=O)N1 [Compound A274, (S)-3-(1′-(3-(1-(((S)-oxetan-2-yl)methyl)-1H-pyrazol-4-yl)benzyl)-6-oxo-6,8-dihydro-2H,7H-spiro[furo[2,3-e]isoindole-3,4′-piperidin]-7-yl)piperidine-2,6-dione] | 50 to 200 nM | 60 to 80% | –
O=C1CC[C@H](N2Cc3c(ccc4c3OCC43CCN(Cc4cnn(CC5(c6ccccc6)CC5)c4)CC3)C2=O)C(=O)N1 [Compound A348, (S)-3-(6-oxo-1′-((1-((1-phenylcyclopropyl)methyl)-1H-pyrazol-4-yl)methyl)-6,8-dihydro-2H,7H-spiro[furo[2,3-e]isoindole-3,4′-piperidin]-7-yl)piperidine-2,6-dione] | < 50 nM | 60 to 80% | –
O=C1CCC(N2Cc3c(ccc4c3OCC43CCN(Cc4ccnc5ccccc45)CC3)C2=O)C(=O)N1 (stereo not drawn) [Compound A44, 3-(6-oxo-1′-(quinolin-4-ylmethyl)-6,8-dihydro-2H,7H-spiro[furo[2,3-e]isoindole-3,4′-piperidin]-7-yl)piperidine-2,6-dione] | > 500 nM | < 40% | –
O=C1CCC(N2Cc3c(ccc4c3OCC43CCN(Cc4cnn(Cc5ccc(Cl)cc5)c4)CC3)C2=O)C(=O)N1 (stereo not drawn) [Compound A241, 3-(1′-((1-(4-chlorobenzyl)-1H-pyrazol-4-yl)methyl)-6-oxo-6,8-dihydro-2H,7H-spiro[furo[2,3-e]isoindole-3,4′-piperidin]-7-yl)piperidine-2,6-dione] | < 50 nM | 60 to 80% | –
O=C1CCC(N2Cc3c(ccc4c3OCC43CCN(Cc4ncn(-c5ccccc5)n4)CC3)C2=O)C(=O)N1 (stereo not drawn) [Compound A335, 3-(6-oxo-1′-((1-phenyl-1H-1,2,4-triazol-3-yl)methyl)-6,8-dihydro-2H,7H-spiro[furo[2,3-e]isoindole-3,4′-piperidin]-7-yl)piperidine-2,6-dione] | > 500 nM | < 40% | –
O=C1CCC(N2Cc3c(ccc4c3OCC43CCN(Cc4cnn(S(=O)(=O)c5ccc(F)c(F)c5)c4)CC3)C2=O)C(=O)N1 [Compound A353, (S)-3-(1′-((1-((3,4-difluorophenyl)sulfonyl)-1H-pyrazol-4-yl)methyl)-6-oxo-6,8-dihydro-2H,7H-spiro[furo[2,3-e]isoindole-3,4′-piperidin]-7-yl)piperidine-2,6-dione] | > 500 nM | – | –
O=C1CCC(N2Cc3c(ccc4c3OCC43CCN(Cc4cccc5nccnc45)CC3)C2=O)C(=O)N1 (stereo not drawn) [Compound A47, 3-(6-oxo-1′-(quinoxalin-5-ylmethyl)-6,8-dihydro-2H,7H-spiro[furo[2,3-e]isoindole-3,4′-piperidin]-7-yl)piperidine-2,6-dione] | > 500 nM | 40 to 60% | –
CC(C)Oc1cc(F)ccc1CN1CCC2(CC1)COc1c2ccc2c1CN([C@H]1CCC(=O)NC1=O)C2=O [Compound A361, (S)-3-(1′-(4-fluoro-2-isopropoxybenzyl)-6-oxo-6,8-dihydro-2H,7H-spiro[furo[2,3-e]isoindole-3,4′-piperidin]-7-yl)piperidine-2,6-dione] | > 500 nM | 40 to 60% | –
O=C1CCC(N2Cc3c(ccc4c3OCC43CCN(Cc4cccc5c4NC(=O)C5)CC3)C2=O)C(=O)N1 (stereo not drawn) [Compound A152, 3-(6-oxo-1′-((2-oxoindolin-7-yl)methyl)-6,8-dihydro-2H,7H-spiro[furo[2,3-e]isoindole-3,4′-piperidin]-7-yl)piperidine-2,6-dione] | 50 to 200 nM | 60 to 80% | –
O=C1CCC(N2Cc3c(ccc4c3OCC43CCN(Cc4cccc(-c5ccccn5)c4)CC3)C2=O)C(=O)N1 (stereo not drawn) [Compound A103, 3-(6-oxo-1′-(3-(pyridin-2-yl)benzyl)-6,8-dihydro-2H,7H-spiro[furo[2,3-e]isoindole-3,4′-piperidin]-7-yl)piperidine-2,6-dione] | 200 to 500 nM | 40 to 60% | –
O=C1CCC(N2Cc3c(ccc4c3OCC43CCN(C[C@H]4C[C@H](Oc5ccc(F)cc5)C4)CC3)C2=O)C(=O)N1 (stereo partly drawn) [Compound A351, 3-(1′-(((1r,3r)-3-(4-fluorophenoxy)cyclobutyl)methyl)-6-oxo-6,8-dihydro-2H,7H-spiro[furo[2,3-e]isoindole-3,4′-piperidin]-7-yl)piperidine-2,6-dione] | > 500 nM | 40 to 60% | –
O=C1CCC(N2Cc3c(ccc4c3OCC43CCN(Cc4ccccc4Oc4ccccc4)CC3)C2=O)C(=O)N1 (stereo not drawn) [Compound A100, 3-(6-oxo-1′-(2-phenoxybenzyl)-6,8-dihydro-2H,7H-spiro[furo[2,3-e]isoindole-3,4′-piperidin]-7-yl)piperidine-2,6-dione] | > 500 nM | < 40% | –
O=C1CC[C@H](N2Cc3c(ccc4c3OCC43CCN(Cc4cnn(S(=O)(=O)c5ccc(F)c(F)c5)c4)CC3)C2=O)C(=O)N1 [Compound A353, (S)-3-(1′-((1-((3,4-difluorophenyl)sulfonyl)-1H-pyrazol-4-yl)methyl)-6-oxo-6,8-dihydro-2H,7H-spiro[furo[2,3-e]isoindole-3,4′-piperidin]-7-yl)piperidine-2,6-dione] | – | 40 to 60% | –
O=C1CCC(N2Cc3c(ccc4c3OCC43CCN(Cc4cnn(S(=O)(=O)c5ccccc5F)c4)CC3)C2=O)C(=O)N1 (stereo not drawn) [Compound A337, 3-(1′-((1-((2-fluorophenyl)sulfonyl)-1H-pyrazol-4-yl)methyl)-6-oxo-6,8-dihydro-2H,7H-spiro[furo[2,3-e]isoindole-3,4′-piperidin]-7-yl)piperidine-2,6-dione] | 50 to 200 nM | 60 to 80% | –
Cn1cnc2ccc(CN3CCC4(CC3)COc3c4ccc4c3CN(C3CCC(=O)NC3=O)C4=O)cc21 (stereo not drawn) [Compound A72, 3-(1′-((1-methyl-1H-benzo[d]imidazol-6-yl)methyl)-6-oxo-6,8-dihydro-2H,7H-spiro[furo[2,3-e]isoindole-3,4′-piperidin]-7-yl)piperidine-2,6-dione] | > 500 nM | 40 to 60% | –
O=C1CCC(N2Cc3c(ccc4c3OCC43CCN(Cc4ccc5c(Cl)n[nH]c5c4)CC3)C2=O)C(=O)N1 (stereo not drawn) [Compound A142, 3-(1′-((3-chloro-1H-indazol-6-yl)methyl)-6-oxo-6,8-dihydro-2H,7H-spiro[furo[2,3-e]isoindole-3,4′-piperidin]-7-yl)piperidine-2,6-dione] | 50 to 200 nM | 60 to 80% | –
O=C1CCC(N2Cc3c(ccc4c3OCC43CCN(Cc4ccn(-c5ccccc5Cl)n4)CC3)C2=O)C(=O)N1 (stereo not drawn) [Compound A321, 3-(1′-((1-(2-chlorophenyl)-1H-pyrazol-3-yl)methyl)-6-oxo-6,8-dihydro-2H,7H-spiro[furo[2,3-e]isoindole-3,4′-piperidin]-7-yl)piperidine-2,6-dione] | > 500 nM | < 40% | –
O=C1CCC(N2Cc3c(ccc4c3OCC43CCN(Cc4cccc5cc[nH]c45)CC3)C2=O)C(=O)N1 (stereo not drawn) [Compound A59, 3-(1′-((1H-indol-7-yl)methyl)-6-oxo-6,8-dihydro-2H,7H-spiro[furo[2,3-e]isoindole-3,4′-piperidin]-7-yl)piperidine-2,6-dione] | 50 to 200 nM | > 80% | –
CCn1cc2ccc(CN3CCC4(CC3)COc3c4ccc4c3CN([C@H]3CCC(=O)NC3=O)C4=O)cc2n1 [Compound A299, (S)-3-(1′-((2-ethyl-2H-indazol-6-yl)methyl)-6-oxo-6,8-dihydro-2H,7H-spiro[furo[2,3-e]isoindole-3,4′-piperidin]-7-yl)piperidine-2,6-dione] | < 50 nM | 60 to 80% | –
O=C1CCC(N2Cc3c(ccc4c3OCC43CCN(Cc4ccn5nccc5c4)CC3)C2=O)C(=O)N1 (stereo not drawn) [Compound A80, 3-(6-oxo-1′-(pyrazolo[1,5-a]pyridin-5-ylmethyl)-6,8-dihydro-2H,7H-spiro[furo[2,3-e]isoindole-3,4′-piperidin]-7-yl)piperidine-2,6-dione] | > 500 nM | < 40% | –
Cc1ccc(C(=O)Nc2cccc(CN3CCC4(CC3)COc3c4ccc4c3CN(C3CCC(=O)NC3=O)C4=O)c2)cc1 (stereo not drawn) [Compound A179, N-(3-((7-(2,6-dioxopiperidin-3-yl)-6-oxo-7,8-dihydro-2H,6H-spiro[furo[2,3-e]isoindole-3,4′-piperidin]-1′-yl)methyl)phenyl)-4-methylbenzamide] | < 50 nM | – | > 80%
O=C1CCC(N2Cc3c(ccc4c3OCC43CCN(Cc4cnn5c4CCC5)CC3)C2=O)C(=O)N1 (stereo not drawn) [Compound A244, 3-(1′-((5,6-dihydro-4H-pyrrolo[1,2-b]pyrazol-3-yl)methyl)-6-oxo-6,8-dihydro-2H,7H-spiro[furo[2,3-e]isoindole-3,4′-piperidin]-7-yl)piperidine-2,6-dione] | 200 to 500 nM | 60 to 80% | –
O=C1CCC(N2Cc3c(ccc4c3OCC43CCN(Cc4cccc(NS(=O)(=O)c5ccccc5)c4)CC3)C2=O)C(=O)N1 (stereo not drawn) [Compound A261, N-(3-((7-(2,6-dioxopiperidin-3-yl)-6-oxo-7,8-dihydro-2H,6H-spiro[furo[2,3-e]isoindole-3,4′-piperidin]-1′-yl)methyl)phenyl)benzenesulfonamide] | > 500 nM | < 40% | –
O=C1CCC(N2Cc3c(ccc4c3OCCC43CCN(CC4CCCCC4)CC3)C2=O)C(=O)N1 (stereo not drawn) [Compound A14, 3-(1-(cyclohexylmethyl)-7′-oxo-2′,3′,7′,9′-tetrahydro-8′H-spiro[piperidine-4,4′-pyrano[2,3-e]isoindol]-8′-yl)piperidine-2,6-dione] | > 500 nM | < 40% | –
O=C1CC[C@H](N2Cc3c(ccc4c3OCC43CCN(Cc4ccccc4)CC3)C2=O)C(=O)N1 [Compound A317, (S)-3-(1′-benzyl-6-oxo-6,8-dihydro-2H,7H-spiro[furo[2,3-e]isoindole-3,4′-piperidin]-7-yl)piperidine-2,6-dione] | 200 to 500 nM | 40 to 60% | –

Reference: patent US20250215012A1, “IKZF2 DEGRADERS AND USES THEREOF” (REGENTS OF THE UNIVERSITY OF MICHIGAN, priority 2022, published 2025)
